Source: patent publication US20240239759A1, “ISOXAZOLINE COMPOSITIONS AND THEIR USE AS ANTIPARASITICS” (Intervet Inc., priority 2007, published 2024)
“And” between values parts separate entries of the source, which are not always exact repeats. Equal entries are not always repeated.

Experiments:
[1] = tested on: juvenile soft ticks (O. moubata); experiment: Efficacy against soft (Argaside) ticks on Guinea pigs (Example 2C); assay type: in vivo, Ornithodoros moubata; details: Guinea pig
Method: (§1) Six Guinea pigs were treated orally, subcutaneously, or intraperitoneally with 10 mg/kg bodyweight of Compound 11-1 or fipronil (positive control). The Guinea pigs were locally co-infested with juvenile soft ticks (O. moubata) and bed bugs (C. lectularius) once before the treatment, and at different time points after treatment between days 2 and 50. Ten engorged ticks/bed bugs were collected to assess the percentage of killed individuals per species 24 hr after each infestation.
(§2) For Guinea pigs treated with Compound 11-1, the ticks and bed bugs died within 1 to 5 hr following infestation up to Day 29, and within 8 to 24 hr after day 29. For Guinea pigs treated with fipronil, ticks and bed bugs died within 1 to 7 hr after infestation up to Day 29, and within 8 to 24 hr after day 29.

[2] = tested on: adult fleas (C. felis); experiment: Efficacy against fleas on mice (Example 2A); assay type: in vivo, Ctenocephalides felis
Method: (§3) Mice were divided into groups of three, and treated topically with 100 ppm body weight, orally with 10 mg/kg bodyweight, or subcutaneously with 10 mg/kg bodyweight of Compound 11-1, fipronil (positive control), or nothing (negative control). These mice were sedated and infested with adult fleas (C. felis) 1, 3, 6, and 24 hr after treatment. Fleas were recovered from the mice after approximately 30 minutes of feeding. The assessment of flea inhibition (% of dead and damaged fleas) was conducted 1 and 24 hr after each infestation.

[3] = Side effects in mice, flea study (Example 2A); assay type: in vivo; details: topical 100 ppm, oral or subcutaneous 10 mg/kg
Method: as §3

[4] = Side effects in Guinea pigs, soft tick and bed bug study (Example 2C); assay type: in vivo
Method: as §1

[5] = tested on: M. musculinus; experiment: Efficacy against mites on mice (Example 2B); assay type: in vivo, Myocoptes musculinus; design: key: “+”=low infestation rate; “++”=medium infestation rate; “+++”=high infestation rate; details: repeated 7 days later
Method: The mice were divided into groups of three, and treated topically with 100 ppm body weight, orally with 10 mg/kg body weight, or subcutaneously with 10 mg/kg body weight of Compound 11-1, fipronil (positive control), or nothing (negative control). This treatment was then repeated 7 days later. The infestation rate per mouse (“+”=low infestation rate, “++”=medium infestation rate, “+++”=high infestation rate) was assessed repeatedly on days 1, 6, 9, 13, and 23. Efficacy was defined as the inhibition of the mite infestation rate on treated mice relative to the negative control group.

[6] = tested on: brown dog ticks, R. sanguineus (nymphs); experiment: Efficacy against hard (Ixodide) ticks on Guinea pigs (Example 2D); assay type: in vivo, Rhipicephalus sanguineus; details: all treated groups of Study 1 (100 ppm dip, 10 mg/kg oral, 10 mg/kg subcutaneous) and Study 2 (25 ppm dip, 2.5 mg/kg oral, 2.5 mg/kg subcutaneous), Day 4 to Day 8
Method: (§4) Guinea pigs were divided into groups of three. Each group was subjected to one of the following treatments with either Compound 11-1, fipronil (positive control), or neither (negative control):
(§5) • 1. 100 ppm body weight topical administration by animal dip • 2. 10 mg/kg body weight oral administration • 3. 10 mg/kg body weight subcutaneous administration • 4. No treatment (negative control)
(§6) • 1. 25 ppm body weight topical administration by animal dip • 2. 2.5 mg/kg body weight oral administration • 3. 2.5 mg/kg body weight subcutaneous administration • 4. No treatment (negative control) One day before the treatment, all the Guinea pigs were infested with 100 vital juvenile (“nymph”) hard ticks (brown dog ticks, R. sanguineus). Engorged, detached nymphs were counted (eN) from Day 4 to Day 8 to calculate the efficacy of the treatments according to following formula: […]
In addition, collected ticks were assessed for molting into the next stage.

[7] = Side effects in Guinea pigs, hard tick studies (Example 2D); assay type: in vivo; details: Guinea pigs; either study (topical dip, oral, subcutaneous)
Method: as §4, §5, §6
In the first study, 32 engorged R. sanguineus nymphs were collected from animals of the untreated negative control group. And in the second study, 75 engorged R. sanguineus nymphs were collected from animals of the untreated negative control group. […] Thus, the inhibition of engorged nymphs for both Compound 11-1 and fipronil was 100%.

[8] = tested on: cat fleas (Ctenocephalides felis); experiment: Adult fleas fed on artificial membranes with spiked blood (Example 1); details: 48 hr continuous feeding
Method: Adult fleas (20-30) were fed on artificial membranes with blood spiked with Compound 10-1, Compound 11-1, or a positive control (fipronil) at a concentration of 100, 10, or 1 ppm. Flea efficacy was assessed after 48 hr of continuous feeding by comparing the number of killed and damaged fleas with the number of fed fleas. Flea efficacy was 100% for Compound 10-1, Compound 11-1, and fipronil at 100, 10, and 1 ppm.

[9] = tested on: bed bugs (C. lectularius); experiment: Efficacy against bed bugs on Guinea pigs (Example 2C); assay type: in vivo, Cimex lectularius; details: Guinea pig
Method: as §1, §2

Cc1cc(C2=NOC(c3cc(Cl)cc(Cl)c3)(C(F)(F)F)C2)ccc1C(=O)NCC(=O)NCC(F)(F)F (racemic) [Compound 11-1, 4-[5-(3,5-dichlorophenyl)-5-trifluoromethyl-4,5-dihydroisoxazol-3-yl]-2-methyl-N-[(2,2,2-trifluoro-ethylcarbamoyl)-methyl]-benzamide]
Efficacy against soft ticks (killed 24 hr after infestation) ([1]; intraperitoneal 10 mg/kg, after Day 31): No efficacy was detected after Day 31.
Efficacy against soft ticks (killed 24 hr after infestation) ([1]; intraperitoneal 10 mg/kg, up to Day 31): 100% efficacy was observed up to Day 31.
Efficacy against soft ticks (killed 24 hr after infestation) ([1]; oral 10 mg/kg, up to Day 31): 100% efficacy was observed up to Day 31.
Efficacy against soft ticks (killed 24 hr after infestation) ([1]; subcutaneous 10 mg/kg, after Day 33): No efficacy was detected after Day 33.
Efficacy against soft ticks (killed 24 hr after infestation) ([1]; subcutaneous 10 mg/kg, up to Day 31): 100% efficacy was observed up to Day 31.
Efficacy against soft ticks (killed 24 hr after infestation) ([1]; subcutaneous 10 mg/kg, up to Day 33): 70% efficacy was observed up to Day 33.
Flea inhibition (% of dead and damaged fleas) ([2]; oral 10 mg/kg, infested 1 hr after treatment, assessed 1 hr after infestation): 43.3%
Flea inhibition (% of dead and damaged fleas) ([2]; oral 10 mg/kg, infested 1 hr after treatment, assessed 24 hr after infestation): 67.7%
Flea inhibition (% of dead and damaged fleas) ([2]; oral 10 mg/kg, infested 3 hr after treatment, assessed 1 hr after infestation): 44.3%
Flea inhibition (% of dead and damaged fleas) ([2]; oral 10 mg/kg, infested 3 hr after treatment, assessed 24 hr after infestation): 48.7%
Flea inhibition (% of dead and damaged fleas) ([2]; oral 10 mg/kg, infested 6 hr after treatment, assessed 1 hr after infestation): 17.7%
Flea inhibition (% of dead and damaged fleas) ([2]; oral 10 mg/kg, infested 6 hr after treatment, assessed 24 hr after infestation): 26.7%
Flea inhibition (% of dead and damaged fleas) ([2]; oral 10 mg/kg, infested 24 hr after treatment, assessed 1 hr after infestation): 37.7%
Flea inhibition (% of dead and damaged fleas) ([2]; oral 10 mg/kg, infested 24 hr after treatment, assessed 24 hr after infestation): 82.0%
Flea inhibition (% of dead and damaged fleas) ([2]; subcutaneous 10 mg/kg, infested 1 hr after treatment, assessed 1 hr after infestation): 7.7%
Flea inhibition (% of dead and damaged fleas) ([2]; subcutaneous 10 mg/kg, infested 1 hr after treatment, assessed 24 hr after infestation): 40.0%
Flea inhibition (% of dead and damaged fleas) ([2]; subcutaneous 10 mg/kg, infested 3 hr after treatment, assessed 1 hr after infestation): 31.0%
Flea inhibition (% of dead and damaged fleas) ([2]; subcutaneous 10 mg/kg, infested 3 hr after treatment, assessed 24 hr after infestation): 42.3%
Flea inhibition (% of dead and damaged fleas) ([2]; subcutaneous 10 mg/kg, infested 6 hr after treatment, assessed 1 hr after infestation): 21.0%
Flea inhibition (% of dead and damaged fleas) ([2]; subcutaneous 10 mg/kg, infested 6 hr after treatment, assessed 24 hr after infestation): 36.7%
Flea inhibition (% of dead and damaged fleas) ([2]; subcutaneous 10 mg/kg, infested 24 hr after treatment, assessed 1 hr after infestation): 100%
Flea inhibition (% of dead and damaged fleas) ([2]; subcutaneous 10 mg/kg, infested 24 hr after treatment, assessed 24 hr after infestation): 100%
Flea inhibition (% of dead and damaged fleas) ([2]; topical 100 ppm body weight, infested 1 hr after treatment, assessed 1 hr after infestation): 0%
Flea inhibition (% of dead and damaged fleas) ([2]; topical 100 ppm body weight, infested 1 hr after treatment, assessed 24 hr after infestation): 97.7%
Flea inhibition (% of dead and damaged fleas) ([2]; topical 100 ppm body weight, infested 3 hr after treatment, assessed 1 hr after infestation): 0%
Flea inhibition (% of dead and damaged fleas) ([2]; topical 100 ppm body weight, infested 3 hr after treatment, assessed 24 hr after infestation): 99.0%
Flea inhibition (% of dead and damaged fleas) ([2]; topical 100 ppm body weight, infested 6 hr after treatment, assessed 1 hr after infestation): 0%
Flea inhibition (% of dead and damaged fleas) ([2]; topical 100 ppm body weight, infested 6 hr after treatment, assessed 24 hr after infestation): 81.0%
Flea inhibition (% of dead and damaged fleas) ([2]; topical 100 ppm body weight, infested 24 hr after treatment, assessed 1 hr after infestation): 2%
Flea inhibition (% of dead and damaged fleas) ([2]; topical 100 ppm body weight, infested 24 hr after treatment, assessed 24 hr after infestation): 93.3%
Side effects [3]: No side effects were observed
Death of the orally treated Guinea pig (Animal No. 1) after Day 31 ([4]; Guinea pig, oral 10 mg/kg, without clinical symptoms): not considered to be treatment-related
Side effects ([4]; Guinea pigs, oral, subcutaneous or intraperitoneal 10 mg/kg): No side effects were observed
Mite infestation rate per mouse ([5]; oral 10 mg/kg, Day 1): + to ++
Mite infestation rate per mouse ([5]; oral 10 mg/kg, Day 6): ++
Mite infestation rate per mouse ([5]; oral 10 mg/kg, Day 9, 10 mg/kg): 2 mice: none and 1 mouse: +
Mite infestation rate per mouse ([5]; oral 10 mg/kg, Day 13): none
Mite infestation rate per mouse ([5]; oral 10 mg/kg, Day 23): none
Mite infestation rate per mouse ([5]; subcutaneous 10 mg/kg, Day 1): + to ++
Mite infestation rate per mouse ([5]; subcutaneous 10 mg/kg, Day 6): ++
Mite infestation rate per mouse ([5]; subcutaneous 10 mg/kg, Day 9): none
Mite infestation rate per mouse ([5]; subcutaneous 10 mg/kg, Day 13): none
Mite infestation rate per mouse ([5]; subcutaneous 10 mg/kg, Day 23): none
Mite infestation rate per mouse ([5]; topical 100 ppm body weight, Day 1): +
Mite infestation rate per mouse ([5]; topical 100 ppm body weight, Day 6): 2 mice: none and 1 mouse: +
Mite infestation rate per mouse ([5]; topical 100 ppm body weight, Day 9): none
Mite infestation rate per mouse ([5]; topical 100 ppm body weight, Day 13): none
Mite infestation rate per mouse ([5]; topical 100 ppm body weight, Day 23): none
Engorged R. sanguineus nymphs collected [6]: no nymphs were collected
Inhibition of engorged nymphs [6]: 100%
Side effects [7]: No side effects were observed
Flea efficacy ([8]; blood spiked at 1 ppm): 100%
Flea efficacy ([8]; blood spiked at 10 ppm): 100%
Flea efficacy ([8]; blood spiked at 100 ppm): 100%
Efficacy against bed bugs (killed 24 hr after infestation) ([9]; intraperitoneal 10 mg/kg, after Day 35): 35. No efficacy was detected after Day 35.
Efficacy against bed bugs (killed 24 hr after infestation) ([9]; intraperitoneal 10 mg/kg, up to Day 33): 100% efficacy was observed up to Day 33.
Efficacy against bed bugs (killed 24 hr after infestation) ([9]; oral 10 mg/kg, up to Day 31): 100% efficacy was observed up to Day 31.
Efficacy against bed bugs (killed 24 hr after infestation) ([9]; subcutaneous 10 mg/kg, after Day 42): 42. No efficacy was detected after Day 42.
Efficacy against bed bugs (killed 24 hr after infestation) ([9]; subcutaneous 10 mg/kg, up to Day 35): 100% efficacy was observed up to Day 35.
Efficacy against bed bugs (killed 24 hr after infestation) ([9]; subcutaneous 10 mg/kg, up to Day 40): 90% efficacy was observed up to Day 40.
